Results published in the NIST ThermoML archive (doi:10.1021/acs.jced.7b00773).
± gives the expanded uncertainty stated by the source.

Conditions: Liquid; for viscosity: Concentric cylinders viscometry

C=CCn1cc[n+](C)c1.O=S(=O)([N-]S(=O)(=O)C(F)(F)F)C(F)(F)F
viscosity (293.15 K, 100 kPa): 40.69 ± 1.9 mPa·s
mass density (293.15 K, 100 kPa, Vibrating tube method): 1506.1 ± 3.3 kg/m3
viscosity (303.15 K, 100 kPa): 28.08 ± 1.3 mPa·s
mass density (303.15 K, 100 kPa, Vibrating tube method): 1496 ± 3.3 kg/m3
mass density (312.5 K, 10000 kPa, Bellows volumetry): 1493.8 ± 3.6 kg/m3
mass density (312.5 K, 20000 kPa, Bellows volumetry): 1501.1 ± 3.6 kg/m3
mass density (312.5 K, 30000 kPa, Bellows volumetry): 1508 ± 3.6 kg/m3
mass density (312.5 K, 40000 kPa, Bellows volumetry): 1514.7 ± 3.6 kg/m3
mass density (312.5 K, 50000 kPa, Bellows volumetry): 1521 ± 3.6 kg/m3
mass density (312.5 K, 60000 kPa, Bellows volumetry): 1527.1 ± 3.6 kg/m3
mass density (312.5 K, 70000 kPa, Bellows volumetry): 1533.1 ± 3.6 kg/m3
mass density (312.5 K, 80000 kPa, Bellows volumetry): 1538.8 ± 3.6 kg/m3
mass density (312.5 K, 90000 kPa, Bellows volumetry): 1544.2 ± 3.6 kg/m3
mass density (312.5 K, 100000 kPa, Bellows volumetry): 1549.5 ± 3.6 kg/m3
mass density (312.5 K, 110000 kPa, Bellows volumetry): 1554.7 ± 3.6 kg/m3
mass density (312.5 K, 120000 kPa, Bellows volumetry): 1559.7 ± 3.6 kg/m3
mass density (312.5 K, 130000 kPa, Bellows volumetry): 1564.7 ± 3.6 kg/m3
mass density (312.5 K, 140000 kPa, Bellows volumetry): 1569.4 ± 3.6 kg/m3
mass density (312.5 K, 150000 kPa, Bellows volumetry): 1574 ± 3.6 kg/m3
mass density (312.5 K, 160000 kPa, Bellows volumetry): 1578.6 ± 3.6 kg/m3
mass density (312.5 K, 170000 kPa, Bellows volumetry): 1583.2 ± 3.6 kg/m3
mass density (312.5 K, 180000 kPa, Bellows volumetry): 1587.5 ± 3.6 kg/m3
mass density (312.5 K, 190000 kPa, Bellows volumetry): 1591.8 ± 3.6 kg/m3
mass density (312.5 K, 200000 kPa, Bellows volumetry): 1596 ± 3.6 kg/m3
viscosity (313.15 K, 100 kPa): 20.31 ± 0.94 mPa·s
mass density (313.15 K, 100 kPa, Vibrating tube method): 1486 ± 3.3 kg/m3
viscosity (323.15 K, 100 kPa): 15.29 ± 0.71 mPa·s
mass density (323.15 K, 100 kPa, Vibrating tube method): 1476 ± 3.3 kg/m3
mass density (332.3 K, 10000 kPa, Bellows volumetry): 1474.5 ± 3.6 kg/m3
mass density (332.3 K, 20000 kPa, Bellows volumetry): 1482.1 ± 3.6 kg/m3
mass density (332.3 K, 30000 kPa, Bellows volumetry): 1489.6 ± 3.6 kg/m3
mass density (332.3 K, 40000 kPa, Bellows volumetry): 1496.7 ± 3.6 kg/m3
mass density (332.3 K, 50000 kPa, Bellows volumetry): 1503.4 ± 3.6 kg/m3
mass density (332.3 K, 60000 kPa, Bellows volumetry): 1509.7 ± 3.6 kg/m3
mass density (332.3 K, 70000 kPa, Bellows volumetry): 1515.8 ± 3.6 kg/m3
mass density (332.3 K, 80000 kPa, Bellows volumetry): 1521.7 ± 3.6 kg/m3
mass density (332.3 K, 90000 kPa, Bellows volumetry): 1527.3 ± 3.6 kg/m3
mass density (332.3 K, 100000 kPa, Bellows volumetry): 1533 ± 3.6 kg/m3
mass density (332.3 K, 110000 kPa, Bellows volumetry): 1538.5 ± 3.6 kg/m3
mass density (332.3 K, 120000 kPa, Bellows volumetry): 1543.8 ± 3.6 kg/m3
mass density (332.3 K, 130000 kPa, Bellows volumetry): 1548.9 ± 3.6 kg/m3
mass density (332.3 K, 140000 kPa, Bellows volumetry): 1553.7 ± 3.6 kg/m3
mass density (332.3 K, 150000 kPa, Bellows volumetry): 1558.5 ± 3.6 kg/m3
mass density (332.3 K, 160000 kPa, Bellows volumetry): 1563.3 ± 3.6 kg/m3
mass density (332.3 K, 170000 kPa, Bellows volumetry): 1568 ± 3.6 kg/m3
mass density (332.3 K, 180000 kPa, Bellows volumetry): 1572.5 ± 3.6 kg/m3
mass density (332.3 K, 190000 kPa, Bellows volumetry): 1576.9 ± 3.6 kg/m3
mass density (332.3 K, 200000 kPa, Bellows volumetry): 1581.4 ± 3.6 kg/m3
viscosity (333.15 K, 100 kPa): 11.91 ± 0.55 mPa·s
mass density (333.15 K, 100 kPa, Vibrating tube method): 1466.1 ± 3.3 kg/m3
viscosity (343.15 K, 100 kPa): 9.52 ± 0.44 mPa·s
mass density (343.15 K, 100 kPa, Vibrating tube method): 1456.3 ± 3.3 kg/m3
mass density (352.4 K, 10000 kPa, Bellows volumetry): 1455.3 ± 3.6 kg/m3
mass density (352.4 K, 20000 kPa, Bellows volumetry): 1463.6 ± 3.6 kg/m3
mass density (352.4 K, 30000 kPa, Bellows volumetry): 1471.5 ± 3.6 kg/m3
mass density (352.4 K, 40000 kPa, Bellows volumetry): 1479 ± 3.6 kg/m3
mass density (352.4 K, 50000 kPa, Bellows volumetry): 1486.1 ± 3.6 kg/m3
mass density (352.4 K, 60000 kPa, Bellows volumetry): 1492.9 ± 3.6 kg/m3
mass density (352.4 K, 70000 kPa, Bellows volumetry): 1499.3 ± 3.6 kg/m3
mass density (352.4 K, 80000 kPa, Bellows volumetry): 1505.6 ± 3.6 kg/m3
mass density (352.4 K, 90000 kPa, Bellows volumetry): 1511.4 ± 3.6 kg/m3
mass density (352.4 K, 100000 kPa, Bellows volumetry): 1517.2 ± 3.6 kg/m3
mass density (352.4 K, 110000 kPa, Bellows volumetry): 1522.8 ± 3.6 kg/m3
mass density (352.4 K, 120000 kPa, Bellows volumetry): 1528.3 ± 3.6 kg/m3
mass density (352.4 K, 130000 kPa, Bellows volumetry): 1533.5 ± 3.6 kg/m3
mass density (352.4 K, 140000 kPa, Bellows volumetry): 1538.7 ± 3.6 kg/m3
mass density (352.4 K, 150000 kPa, Bellows volumetry): 1543.7 ± 3.6 kg/m3
mass density (352.4 K, 160000 kPa, Bellows volumetry): 1548.5 ± 3.6 kg/m3
mass density (352.4 K, 170000 kPa, Bellows volumetry): 1553.3 ± 3.6 kg/m3
mass density (352.4 K, 180000 kPa, Bellows volumetry): 1558 ± 3.6 kg/m3
mass density (352.4 K, 190000 kPa, Bellows volumetry): 1562.6 ± 3.6 kg/m3
mass density (352.4 K, 200000 kPa, Bellows volumetry): 1567.1 ± 3.6 kg/m3
viscosity (353.15 K, 100 kPa): 7.783 ± 0.36 mPa·s
mass density (353.15 K, 100 kPa, Vibrating tube method): 1446.5 ± 3.3 kg/m3
viscosity (363.15 K, 100 kPa): 6.489 ± 0.3 mPa·s
mass density (363.15 K, 100 kPa, Vibrating tube method): 1436.8 ± 3.2 kg/m3
mass density (372.5 K, 10000 kPa, Bellows volumetry): 1436.7 ± 3.6 kg/m3
mass density (372.5 K, 20000 kPa, Bellows volumetry): 1445.3 ± 3.6 kg/m3
mass density (372.5 K, 30000 kPa, Bellows volumetry): 1453.7 ± 3.6 kg/m3
